{"source": "paper PMC9138505", "about": "“Small Molecule 20S Proteasome Enhancer Regulates MYC Protein Stability and Exhibits Antitumor Activity in Multiple Myeloma” (Biomedicines, 2022)", "system": "RPMI-8226 cells", "assay": "Gene expression profiling, NanoString nCounter PanCancer Pathways Panel, ROSALIND analysis", "type": "cell-based, human", "conditions": "RPMI-8226, TCH-165 samples 1-3", "description": "RPMI-8226 cells were treated with vehicle or TCH-165 (10 μM) for 4 h. Total RNA was obtained using the mirVana miRNA Isolation Kit, with phenol (Thermofisher Scientific; AM1560; Waltham, MA, USA). Total RNA was quantified by Qubit (Thermofisher Scientific; Q32855; Waltham, MA, USA). and gene expression was evaluated against the nCounter® PanCancer Pathways Panel^TM according to the standard NanoString protocol.\nData were analyzed by ROSALIND® [36] with a hyperscale architecture developed by ROSALIND, Inc. (San Diego, CA, USA). Normalization, fold changes and p-values were calculated using criteria provided by NanoString. ROSALIND follows the nCounter® Advanced Analysis protocol of dividing counts within a lane by the geometric mean of the normalizer probes from the same lane. Housekeeping probes to be used for normalization are selected based on the geNorm algorithm, as implemented in the NormqPCR R library. Fold changes and p-values are calculated using the fast method as described in the nCounter Advanced Analysis 2.0 User Manual. The p-value adjustment is performed using the Benjamini–Hochberg method of estimating false discovery rates (FDR). Clustering of genes for the final heatmap of differentially expressed genes was done using the PAM (Partitioning Around Medoids) method using the fpc R library. Hypergeometric distribution was used to analyze the enrichment of pathways, gene ontology, domain structure and other ontologies. The topGO R library was used to determine local similarities and dependencies between GO terms in order to perform Elim pruning correction. Several database sources were referenced for enrichment analysis, including Interpro [40], NCBI [41], MSigDB [42, 43], REACTOME [44], WikiPathways. Enrichment was calculated relative to a set of background genes relevant to the experiment.", "note": "Several values for one entry are separate records, joined by “and”; a condition that tells them apart may be missing. Identical values can stand only once.", "data": [{"smiles": "CCOC(=O)[C@]1(c2ccccc2)N=C(c2ccc(OC)cc2)N(Cc2ccccc2)[C@@H]1c1ccc(NCc2ccccc2)cc1", "note": "[TCH-165]", "values": [{"measurement": "FGF2 normalized gene expression", "value": "5.208 and 4.324 and 4.613"}, {"measurement": "FGF3 normalized gene expression", "value": "4.401 and 4.524 and 4.693"}, {"measurement": "FGF4 normalized gene expression", "value": "5.044 and 4.927 and 4.613"}, {"measurement": "FGF5 normalized gene expression", "value": "2.723 and 2.569 and 3.0682"}, {"measurement": "FGF6 normalized gene expression", "value": "3.86 and 3.891 and 3.184"}, {"measurement": "FGF7 normalized gene expression", "value": "4.86 and 4.996 and 4.653"}, {"measurement": "FGF8 normalized gene expression", "value": "4.723 and 3.569 and 3.805"}, {"measurement": "FGF9 normalized gene expression", "value": "7.044 and 7.045 and 7.083"}, {"measurement": "FGF10 normalized gene expression", "value": "5.308 and 4.614 and 4.975"}, {"measurement": "FGF11 normalized gene expression", "value": "5.53 and 5.154 and 4.975"}, {"measurement": "FGF12 normalized gene expression", "value": "3.86 and 4.7789 and 4.769"}, {"measurement": "FGF13 normalized gene expression", "value": "8.993 and 9.004 and 8.947"}, {"measurement": "FGF14 normalized gene expression", "value": "4.86 and 4.891 and 4.769"}, {"measurement": "FGF16 normalized gene expression", "value": "4.793 and 4.996 and 4.731"}, {"measurement": "FGF17 normalized gene expression", "value": "2.723 and 3.154 and 3.653"}, {"measurement": "FGF18 normalized gene expression", "value": "4.101 and 2.3768 and 3.39"}, {"measurement": "FGF19 normalized gene expression", "value": "3.86 and 4.029 and 4.1271"}, {"measurement": "FGF20 normalized gene expression", "value": "4.571 and 4.817 and 4.876"}, {"measurement": "FGF21 normalized gene expression", "value": "5.955 and 5.636 and 5.712"}, {"measurement": "FGF22 normalized gene expression", "value": "5.827 and 5.569 and 5.098"}, {"measurement": "FGF23 normalized gene expression", "value": "5.208 and 5.124 and 5.341"}, {"measurement": "FGFR1 normalized gene expression", "value": "4.488 and 4.324 and 4.528"}, {"measurement": "FGFR2 normalized gene expression", "value": "6.015 and 5.836 and 5.461"}, {"measurement": "FGFR3 normalized gene expression", "value": "5.488 and 4.614 and 4.9095"}, {"measurement": "FGFR4 normalized gene expression", "value": "4.401 and 3.891 and 4.1271"}, {"measurement": "FIGF normalized gene expression", "value": "4.101 and 3.817 and 2.943"}, {"measurement": "FLNA normalized gene expression", "value": "9.475 and 9.497 and 9.54"}, {"measurement": "FLNC normalized gene expression", "value": "5.924 and 5.979 and 5.528"}, {"measurement": "FLT1 normalized gene expression", "value": "3.401 and 4.029 and 3.653"}, {"measurement": "FLT3 normalized gene expression", "value": "3.401 and 2.739 and 3.0682"}, {"measurement": "FN1 normalized gene expression", "value": "13.4955 and 13.457 and 13.4134"}, {"measurement": "FOS normalized gene expression", "value": "7.234 and 7.603 and 7.613"}, {"measurement": "FOSL1 normalized gene expression", "value": "5.892 and 5.759 and 5.712"}, {"measurement": "FOXL2 normalized gene expression", "value": "4.924 and 4.569 and 4.528"}, {"measurement": "FOXO4 normalized gene expression", "value": "6.986 and 7.124 and 6.787"}, {"measurement": "FST normalized gene expression", "value": "5.308 and 5.093 and 5.184"}, {"measurement": "FUBP1 normalized gene expression", "value": "10.9203 and 10.8641 and 10.8501"}, {"measurement": "FUT8 normalized gene expression", "value": "8.45 and 8.328 and 8.338"}, {"measurement": "FZD2 normalized gene expression", "value": "4.571 and 4.817 and 5.211"}, {"measurement": "FZD3 normalized gene expression", "value": "7.195 and 7.427 and 7.378"}, {"measurement": "FZD7 normalized gene expression", "value": "4.986 and 4.7789 and 4.805"}, {"measurement": "FZD8 normalized gene expression", "value": "4.401 and 3.569 and 4.1271"}, {"measurement": "FZD9 normalized gene expression", "value": "5.208 and 4.029 and 4.341"}, {"measurement": "FZD10 normalized gene expression", "value": "4.86 and 3.962 and 4.437"}, {"measurement": "GADD45A normalized gene expression", "value": "9.132 and 9.301 and 9.248"}, {"measurement": "GADD45B normalized gene expression", "value": "7.884 and 7.9093 and 7.914"}, {"measurement": "GADD45G normalized gene expression", "value": "4.101 and 4.569 and 4.693"}, {"measurement": "GAS1 normalized gene expression", "value": "5.259 and 4.029 and 4.653"}, {"measurement": "GATA1 normalized gene expression", "value": "5.156 and 4.476 and 4.437"}, {"measurement": "GATA2 normalized gene expression", "value": "4.924 and 4.476 and 4.0068"}, {"measurement": "GATA3 normalized gene expression", "value": "2.986 and 4.029 and 4.1271"}, {"measurement": "GHR normalized gene expression", "value": "4.208 and 4.657 and 4.876"}, {"measurement": "GLI1 normalized gene expression", "value": "4.793 and 4.996 and 5.1271"}, {"measurement": "GLI3 normalized gene expression", "value": "7.234 and 6.709 and 6.884"}, {"measurement": "GNA11 normalized gene expression", "value": "6.86 and 6.739 and 6.602"}, {"measurement": "GNAQ normalized gene expression", "value": "4.86 and 5.324 and 4.653"}, {"measurement": "GNAS normalized gene expression", "value": "10.7886 and 10.9336 and 10.8358"}, {"measurement": "GNG4 normalized gene expression", "value": "4.208 and 4.569 and 4.9095"}, {"measurement": "GNG7 normalized gene expression", "value": "5.488 and 5.452 and 4.975"}, {"measurement": "GNGT1 normalized gene expression", "value": "4.86 and 4.699 and 4.341"}, {"measurement": "GPC4 normalized gene expression", "value": "4.986 and 4.324 and 4.238"}, {"measurement": "GRB2 normalized gene expression", "value": "11.2288 and 11.2361 and 11.1936"}, {"measurement": "GRIA3 normalized gene expression", "value": "5.101 and 4.029 and 4.39"}, {"measurement": "GRIN1 normalized gene expression", "value": "6.182 and 5.836 and 5.975"}, {"measurement": "GRIN2A normalized gene expression", "value": "5.955 and 5.678 and 5.437"}, {"measurement": "GRIN2B normalized gene expression", "value": "3.401 and 3.476 and 2.943"}, {"measurement": "GSK3B normalized gene expression", "value": "8.384 and 8.242 and 8.36"}, {"measurement": "GTF2H3 normalized gene expression", "value": "9.358 and 9.284 and 9.271"}, {"measurement": "GZMB normalized gene expression", "value": "4.649 and 4.029 and 4.5707"}, {"measurement": "H2AFX normalized gene expression", "value": "9.249 and 8.96 and 9.049"}, {"measurement": "H3F3A normalized gene expression", "value": "13.5139 and 13.5375 and 13.5217"}, {"measurement": "HDAC1 normalized gene expression", "value": "9.665 and 9.611 and 9.679"}, {"measurement": "HDAC2 normalized gene expression", "value": "11.0236 and 10.9286 and 10.9442"}, {"measurement": "HDAC4 normalized gene expression", "value": "6.986 and 6.798 and 6.778"}, {"measurement": "HDAC5 normalized gene expression", "value": "8.03 and 8.069 and 8.049"}, {"measurement": "HDAC6 normalized gene expression", "value": "7.658 and 7.699 and 7.643"}, {"measurement": "HELLS normalized gene expression", "value": "9.578 and 9.451 and 9.503"}, {"measurement": "HES1 normalized gene expression", "value": "4.924 and 4.855 and 4.613"}, {"measurement": "HGF normalized gene expression", "value": "8.129 and 8.033 and 8.145"}, {"measurement": "HHEX normalized gene expression", "value": "5.986 and 6.012 and 5.943"}, {"measurement": "HIST1H3B normalized gene expression", "value": "15.271 and 14.9487 and 14.86"}, {"measurement": "HIST1H3G normalized gene expression", "value": "14.1552 and 13.7784 and 13.7341"}, {"measurement": "HIST1H3H normalized gene expression", "value": "15.3267 and 14.9451 and 14.9056"}, {"measurement": "HMGA1 normalized gene expression", "value": "10.7304 and 10.6516 and 10.6817"}, {"measurement": "HMGA2 normalized gene expression", "value": "4.86 and 4.657 and 4.0068"}, {"measurement": "HNF1A normalized gene expression", "value": "5.53 and 4.962 and 4.769"}, {"measurement": "HOXA9 normalized gene expression", "value": "5.355 and 5.242 and 5.291"}, {"measurement": "HOXA10 normalized gene expression", "value": "5.61 and 5.592 and 5.437"}, {"measurement": "HOXA11 normalized gene expression", "value": "4.986 and 5.093 and 5.414"}, {"measurement": "HPGD normalized gene expression", "value": "4.208 and 4.3768 and 5.0068"}]}]}
